Assay results as given in paper PMC6441019, “Prospective discovery of small molecule enhancers of an E3 ligase-substrate interaction” (Nature Communications, 2019).

How the values were obtained:
[1] = target: T1, full-length S33E/S37A β-catenin protein ubiquitylation by SCFβ-TrCP (Homo sapiens, UniProt P35222+Q9Y297, S33E/S37A); assay: In vitro ubiquitylation of full-length S33E/S37A β-catenin protein; assay type: biochemical
T1 construct: 6xHis-SMT3 (N, cleaved yes); host or cells: HEK293T (β-catenin); E. coli (β-TrCP1/Skp1); E. coli or SF9 (Cul1-Rbx1)
T1 sequence (Q9Y297 1-569 isoform Q9Y297-2, stated change not applied): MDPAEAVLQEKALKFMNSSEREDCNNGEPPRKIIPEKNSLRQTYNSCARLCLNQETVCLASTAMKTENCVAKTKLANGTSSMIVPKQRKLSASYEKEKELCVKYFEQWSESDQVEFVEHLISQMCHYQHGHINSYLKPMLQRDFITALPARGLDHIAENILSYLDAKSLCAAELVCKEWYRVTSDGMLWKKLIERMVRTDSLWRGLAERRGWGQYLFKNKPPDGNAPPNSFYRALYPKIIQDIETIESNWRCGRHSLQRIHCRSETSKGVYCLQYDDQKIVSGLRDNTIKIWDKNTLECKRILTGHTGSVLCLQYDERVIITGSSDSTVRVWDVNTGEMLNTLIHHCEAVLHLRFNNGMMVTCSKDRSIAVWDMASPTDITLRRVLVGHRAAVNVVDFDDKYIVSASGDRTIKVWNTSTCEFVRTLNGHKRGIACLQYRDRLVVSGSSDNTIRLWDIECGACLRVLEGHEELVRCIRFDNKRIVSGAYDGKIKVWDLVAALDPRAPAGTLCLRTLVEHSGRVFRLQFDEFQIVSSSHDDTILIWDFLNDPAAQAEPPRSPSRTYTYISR
T1 sequence (P63208 whole entry partner): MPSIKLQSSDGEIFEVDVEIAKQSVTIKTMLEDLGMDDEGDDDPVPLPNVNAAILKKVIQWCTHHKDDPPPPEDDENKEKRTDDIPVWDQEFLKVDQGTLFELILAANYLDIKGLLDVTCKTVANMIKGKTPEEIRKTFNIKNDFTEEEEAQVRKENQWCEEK
T1 sequence (Q13616 whole entry partner): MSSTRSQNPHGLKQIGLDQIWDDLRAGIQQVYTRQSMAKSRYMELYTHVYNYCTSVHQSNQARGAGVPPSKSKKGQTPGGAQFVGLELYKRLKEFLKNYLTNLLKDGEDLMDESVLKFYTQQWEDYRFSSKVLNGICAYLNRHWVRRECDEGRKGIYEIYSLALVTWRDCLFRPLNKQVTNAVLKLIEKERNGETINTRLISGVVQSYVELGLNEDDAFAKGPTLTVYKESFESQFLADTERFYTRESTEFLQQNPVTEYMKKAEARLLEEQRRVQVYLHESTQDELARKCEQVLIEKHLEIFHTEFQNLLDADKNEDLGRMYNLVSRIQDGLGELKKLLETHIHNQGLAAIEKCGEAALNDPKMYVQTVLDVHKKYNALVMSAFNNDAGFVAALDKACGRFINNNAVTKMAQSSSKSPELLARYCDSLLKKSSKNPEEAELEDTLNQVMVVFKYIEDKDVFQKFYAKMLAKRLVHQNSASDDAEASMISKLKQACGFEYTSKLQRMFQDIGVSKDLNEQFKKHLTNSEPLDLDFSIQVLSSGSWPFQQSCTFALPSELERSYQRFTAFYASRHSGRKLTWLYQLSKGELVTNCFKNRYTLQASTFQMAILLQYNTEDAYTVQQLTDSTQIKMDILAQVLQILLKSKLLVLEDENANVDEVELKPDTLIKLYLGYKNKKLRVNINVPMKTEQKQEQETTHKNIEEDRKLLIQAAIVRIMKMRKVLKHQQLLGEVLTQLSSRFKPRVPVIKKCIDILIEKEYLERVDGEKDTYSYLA
T1 sequence (P62877 whole entry partner): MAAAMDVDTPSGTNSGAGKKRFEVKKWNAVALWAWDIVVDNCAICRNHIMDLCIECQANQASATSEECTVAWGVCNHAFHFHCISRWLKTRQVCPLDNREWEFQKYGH
T1 sequence (Q15843 1-76 partner limits assumed): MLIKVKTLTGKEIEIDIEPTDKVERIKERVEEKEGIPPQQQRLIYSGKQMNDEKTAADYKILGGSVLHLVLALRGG
T1 sequence (P35222 whole entry S33E/S37A): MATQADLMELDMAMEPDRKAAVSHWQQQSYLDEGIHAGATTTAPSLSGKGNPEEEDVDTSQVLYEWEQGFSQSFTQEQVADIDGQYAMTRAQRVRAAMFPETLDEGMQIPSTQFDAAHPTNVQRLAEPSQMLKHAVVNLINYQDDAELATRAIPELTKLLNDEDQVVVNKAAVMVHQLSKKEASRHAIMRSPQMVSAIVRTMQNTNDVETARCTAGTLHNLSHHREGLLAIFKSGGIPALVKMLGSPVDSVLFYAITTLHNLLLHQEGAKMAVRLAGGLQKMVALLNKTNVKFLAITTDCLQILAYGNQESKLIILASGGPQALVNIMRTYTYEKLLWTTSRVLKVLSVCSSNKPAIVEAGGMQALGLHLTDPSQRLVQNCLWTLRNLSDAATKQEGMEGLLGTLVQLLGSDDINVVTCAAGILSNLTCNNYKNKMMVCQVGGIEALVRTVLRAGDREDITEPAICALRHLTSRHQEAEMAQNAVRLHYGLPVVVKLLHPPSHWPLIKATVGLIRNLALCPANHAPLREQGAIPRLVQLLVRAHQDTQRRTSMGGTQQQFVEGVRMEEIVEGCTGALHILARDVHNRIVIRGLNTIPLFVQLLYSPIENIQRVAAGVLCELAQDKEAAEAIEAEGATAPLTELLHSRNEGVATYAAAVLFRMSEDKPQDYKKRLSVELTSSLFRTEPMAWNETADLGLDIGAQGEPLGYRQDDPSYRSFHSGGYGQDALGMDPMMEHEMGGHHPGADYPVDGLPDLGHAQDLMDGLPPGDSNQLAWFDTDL
Protocol: (§1) Four micromolar of fluorescently-labeled β-catenin peptide (residues 17–60) were ubiquitylated in a buffer containing 25 mM Tris Cl (pH 7.5), 50 mM NaCl, 5 mM MgCl2, 2 mM ATP, and 1 mM DTT at room temperature in the presence of 62.5 μM Ubiquitin, 125 nM Ube1, 1.75 μM Cdc34A, and 100 nM neddylated SCF^β-TrCP in the presence or absence of compound (as indicated). Typically, individual reaction mixes with either Ubiquitin, Ube1 and Cdc34A or β-catenin, SCF^β-TrCP and compound were preincubated and subsequently mixed to initiate β-catenin ubiquitylation. Reactions were quenched by SDS loading buffer, resolved by SDS-PAGE and imaged for fluorescence. For full length β-catenin protein ubiquitylation 400 nM β-catenin and 400 nM SCF^β-TrCP were used instead.

[2] = target: T2, pSer33/S37A β-catenin peptide binding to β-TrCP (Homo sapiens, UniProt P35222+Q9Y297, S37A); assay: TR-FRET peptide binding and cooperativity assay, pSer33/S37A peptide
T2 construct: titrating BODIPY-FL-labeled β-catenin peptides (residues 17-48) against 300 pM β-TrCP; 6xHis-SMT3 (N, cleaved yes); made in house; host or cells: E. coli (co-expressed with BirA)
T2 sequence (Q9Y297 1-569 isoform Q9Y297-2, stated change not applied): as the sequence (Q9Y297 1-569 isoform Q9Y297-2, stated change not applied) above
T2 sequence (P63208 whole entry partner, the tested form may be a part): as the sequence (P63208 whole entry partner) above
T2 sequence (P35222 17-48 S37A limits assumed): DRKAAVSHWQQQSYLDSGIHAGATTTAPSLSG
Protocol: Compounds were incubated in a 20 μl reaction volume with 300 pM biotinylated β-TrCP/Skp1 preincubated with 1.2 nM terbium-coupled streptavidin (Cisbio) and BODIPY-FL labeled β-catenin peptides (see figure legends for peptide details) in a white 384-well microplate (Perkin Elmer ProxiPlate), using a PBS buffer containing 0.01% Triton X-100 and 2 mM DTT with 2% final DMSO. […] Following 1-h incubation, plates were read for TR-FRET signal after excitation at 320 nm and read at 520 and 620 nm using an EnVision plate reader (Perkin Elmer). TR-FRET signal was calculated using a 520/620 nm ratio. Binding and enhancement data were fit to a standard Hill equation (Y = Bmin + (Bmax − Bmin)(X^h)/(X^h + EC50^h)) in Prism (GraphPad). Errors are standard error of the fit.

[3] = target: T3, S33E/S37A β-catenin:β-TrCP interaction (Homo sapiens, UniProt P35222+Q9Y297, S33E/S37A); assay: Pull down from HEK293T cells treated with compound; assay type: cell-based; details: 50 μM, 6 h
T3 construct: a ternary complex with the full-length S33E/S37A β-catenin and β-TrCP in cells; evaluated for their ability to pull down endogenous β-TrCP; expressed in transfected cells; host or cells: HEK293T (transient, FuGeneHD); β-TrCP endogenous
T3 sequence (P35222 whole entry S33E/S37A): as the sequence (P35222 whole entry S33E/S37A) above
T3 sequence (Q9Y297 whole entry, stated change not applied): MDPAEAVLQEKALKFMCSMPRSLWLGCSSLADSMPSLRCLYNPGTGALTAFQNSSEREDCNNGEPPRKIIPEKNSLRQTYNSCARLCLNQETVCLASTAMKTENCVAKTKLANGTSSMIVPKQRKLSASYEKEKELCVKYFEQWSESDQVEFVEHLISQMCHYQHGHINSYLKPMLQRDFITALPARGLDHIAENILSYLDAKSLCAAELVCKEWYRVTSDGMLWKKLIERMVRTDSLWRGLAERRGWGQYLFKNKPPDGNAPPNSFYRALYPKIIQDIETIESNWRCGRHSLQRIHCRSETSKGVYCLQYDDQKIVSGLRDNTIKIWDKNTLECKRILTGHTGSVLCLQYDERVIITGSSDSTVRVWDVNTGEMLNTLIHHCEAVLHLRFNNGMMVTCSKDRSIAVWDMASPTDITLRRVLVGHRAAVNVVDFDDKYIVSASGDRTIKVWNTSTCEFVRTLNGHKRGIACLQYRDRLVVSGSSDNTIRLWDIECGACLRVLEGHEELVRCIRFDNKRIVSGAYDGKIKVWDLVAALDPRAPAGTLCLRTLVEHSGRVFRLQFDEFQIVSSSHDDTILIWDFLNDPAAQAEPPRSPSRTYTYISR
T3 sequence (P63208 whole entry partner): as the sequence (P63208 whole entry partner) above
Protocol: Pull down from cells treated with compound: HEK293T cells were plated in 10 cm dishes at a density of 1.2 × 10^6 cells per plate. Cells were transfected 24 h later with 2.5 µg of a WT or S33E/S37A Myc/FLAG-tagged β-catenin expression construct using the transfection reagent FuGeneHD. […] Cells were then liberated from 10 cm dishes using a cell scraper, pelleted, washed with PBS, resuspended in an equal volume of hypotonic lysis buffer (20 mM HEPES 7.5, 5 mM KCl, 1.5 mM MgCl2, 2 mM DTT, 0.01% TX-100, protease and phosphatase inhibitors, 1% DMSO), and sheered by eight passages through 21 G and 25 G needles. Samples were then supplemented up to 150 mM NaCl and clarified by centrifugation. Thirty microliters of each lysate was incubated over 10 µL of anti-c-myc magnetic beads (Pierce, Catalog #PI88842) and incubated at room temp with rotation for 30 min. Beads were pelleted, washed twice with lysis buffer, and resuspended in SDS loading buffer. Samples were analyzed by western blot.

[4] = target: T4, Ser33/S37A β-catenin peptide ubiquitylation by SCFβ-TrCP (Homo sapiens, UniProt P35222+Q9Y297, S37A); assay: In vitro ubiquitylation of Ser33/S37A β-catenin peptide; assay type: biochemical
T4 construct: Ubiquitylation of Ser33/S37A β-catenin peptide (residues 17–60) by SCF^β-TrCP; 6xHis-SMT3 (N, cleaved yes); made in house; host or cells: E. coli (β-TrCP1/Skp1); E. coli or SF9 (Cul1-Rbx1)
T4 sequence (Q9Y297 1-569 isoform Q9Y297-2, stated change not applied): as the sequence (Q9Y297 1-569 isoform Q9Y297-2, stated change not applied) above
T4 sequence (P63208 whole entry partner, the tested form may be a part): as the sequence (P63208 whole entry partner) above
T4 sequence (Q13616 whole entry partner, the tested form may be a part): as the sequence (Q13616 whole entry partner) above
T4 sequence (P62877 whole entry partner, the tested form may be a part): as the sequence (P62877 whole entry partner) above
T4 sequence (Q15843 1-76 partner limits assumed): as the sequence (Q15843 1-76 partner limits assumed) above
T4 sequence (P35222 17-60 S37A limits assumed): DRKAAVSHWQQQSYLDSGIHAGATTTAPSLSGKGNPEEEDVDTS
Protocol: as §1

ligand concentration at which ubiquitin chain formation resembles WT β-catenin protein [1]: ≥ 10 µM
enhancement of ubiquitylation of S33E/S37A β-catenin protein ([1]; varying concentration): markedly enhances
cooperativity of peptide binding to β-TrCP [2]: > 1500 fold
ubiquitylation of unphosphorylated Ser33/S37A β-catenin peptides [4]: potentiates the ubiquitylation
SMILES: N#Cc1cccc2c1CN(C(=O)c1c(Sc3c(Cl)cccc3Cl)cc(C(F)(F)F)[nH]c1=O)C2 [NRX-252114]
S33E/S37A β-catenin:β-TrCP interaction in transfected cells [3]: robust S33E/S37A β-catenin:β-TrCP interaction
